Data published in PMC7316778 (Nature Communications, 2020).
Where “and” joins values, the source holds several entries; their conditions need not be identical. Equal entries are not always repeated. Where two headings read alike, the source gives them in different places.

Columns and labels:
Experiment in all cases: SelectScreen kinase assay
MLK4 = MLK4 (Homo sapiens, UniProt Q5TCX8)
Description: (§1) Selectivity profiling assays were performed by the Invitrogen SelectScreen™ Services. […] The concentration of ATP was selected to be equal to the KM, unless indicated otherwise.

PASK = PASK (Homo sapiens, UniProt Q96RG2); conditions: for Inhibition at 1 µM (%): PASK, ZLYTE, ATP Km app
Description: as §1

CDK2/cyclin A = CDK2/cyclin A (Homo sapiens, UniProt P24941)
Description: as §1

FGFR3 = FGFR3 (Homo sapiens, UniProt P22607)
Description: as §1

ICK = ICK (Homo sapiens, UniProt Q9UPZ9)
Description: as §1

TEK (Tie2) = TEK (Tie2) (Homo sapiens, UniProt Q02763)
Description: as §1

AURKB (Aurora B) = AURKB (Aurora B) (Homo sapiens, UniProt Q96GD4)
Description: as §1

EPHB4 = molecular target: T1, EPHB4 (Homo sapiens, UniProt P54760); conditions: for Inhibition at 1 µM (%): EPHB4, ZLYTE, ATP Km app
T1 sequence (P54760 16-987): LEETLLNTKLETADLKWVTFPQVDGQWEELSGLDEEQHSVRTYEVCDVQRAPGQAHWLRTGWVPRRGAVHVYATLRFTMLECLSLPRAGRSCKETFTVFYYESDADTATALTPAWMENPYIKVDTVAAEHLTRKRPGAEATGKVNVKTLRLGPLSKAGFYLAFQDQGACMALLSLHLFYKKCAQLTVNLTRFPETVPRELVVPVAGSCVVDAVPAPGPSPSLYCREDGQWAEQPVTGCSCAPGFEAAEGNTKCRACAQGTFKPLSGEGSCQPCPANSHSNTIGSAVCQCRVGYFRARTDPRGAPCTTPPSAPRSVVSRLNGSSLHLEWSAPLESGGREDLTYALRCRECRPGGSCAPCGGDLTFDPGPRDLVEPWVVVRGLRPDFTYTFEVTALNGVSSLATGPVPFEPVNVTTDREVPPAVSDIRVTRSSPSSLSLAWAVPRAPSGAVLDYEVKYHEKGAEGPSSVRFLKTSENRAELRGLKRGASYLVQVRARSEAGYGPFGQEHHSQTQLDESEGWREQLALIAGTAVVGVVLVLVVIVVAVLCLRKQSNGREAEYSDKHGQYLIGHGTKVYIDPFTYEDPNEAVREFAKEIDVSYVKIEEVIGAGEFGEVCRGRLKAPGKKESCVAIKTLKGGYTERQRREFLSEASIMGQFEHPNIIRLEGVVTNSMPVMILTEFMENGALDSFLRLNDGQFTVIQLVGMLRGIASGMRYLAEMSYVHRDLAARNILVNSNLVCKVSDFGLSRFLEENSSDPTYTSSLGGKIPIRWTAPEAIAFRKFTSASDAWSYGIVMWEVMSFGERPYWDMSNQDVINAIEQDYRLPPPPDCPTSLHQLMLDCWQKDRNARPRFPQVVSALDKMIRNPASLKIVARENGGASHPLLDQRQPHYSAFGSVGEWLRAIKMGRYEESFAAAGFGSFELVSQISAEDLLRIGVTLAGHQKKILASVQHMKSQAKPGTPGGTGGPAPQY
Description: as §1

SLK = SLK (Homo sapiens, UniProt Q9H2G2)
Description: as §1

STK32B (YANK2) = STK32B (YANK2) (Homo sapiens, UniProt Q9NY57)
Description: as §1

TESK1 = TESK1 (Homo sapiens, UniProt Q15569)
Description: as §1

[1] = 1 h, 1 μM WEL028, 1 h preincubation
[2] = 1 µM, LanthaScreen Binding, listed as WEL028, 1 µM
[3] = read-out: Inhibition at 1 µM (%), 1 µM, LanthaScreen Binding

Chain of AURKB (Aurora B) (Q96GD4 whole entry): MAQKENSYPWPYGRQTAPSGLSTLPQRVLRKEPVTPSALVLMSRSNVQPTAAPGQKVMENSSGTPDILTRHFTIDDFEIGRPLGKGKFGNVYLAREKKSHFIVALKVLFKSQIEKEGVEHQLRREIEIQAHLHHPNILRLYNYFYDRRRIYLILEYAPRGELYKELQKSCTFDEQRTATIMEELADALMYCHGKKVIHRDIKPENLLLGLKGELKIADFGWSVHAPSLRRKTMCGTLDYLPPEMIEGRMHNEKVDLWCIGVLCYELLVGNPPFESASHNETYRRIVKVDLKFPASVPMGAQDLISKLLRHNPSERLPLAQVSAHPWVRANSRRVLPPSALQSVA
Chain of PASK (Q96RG2 whole entry): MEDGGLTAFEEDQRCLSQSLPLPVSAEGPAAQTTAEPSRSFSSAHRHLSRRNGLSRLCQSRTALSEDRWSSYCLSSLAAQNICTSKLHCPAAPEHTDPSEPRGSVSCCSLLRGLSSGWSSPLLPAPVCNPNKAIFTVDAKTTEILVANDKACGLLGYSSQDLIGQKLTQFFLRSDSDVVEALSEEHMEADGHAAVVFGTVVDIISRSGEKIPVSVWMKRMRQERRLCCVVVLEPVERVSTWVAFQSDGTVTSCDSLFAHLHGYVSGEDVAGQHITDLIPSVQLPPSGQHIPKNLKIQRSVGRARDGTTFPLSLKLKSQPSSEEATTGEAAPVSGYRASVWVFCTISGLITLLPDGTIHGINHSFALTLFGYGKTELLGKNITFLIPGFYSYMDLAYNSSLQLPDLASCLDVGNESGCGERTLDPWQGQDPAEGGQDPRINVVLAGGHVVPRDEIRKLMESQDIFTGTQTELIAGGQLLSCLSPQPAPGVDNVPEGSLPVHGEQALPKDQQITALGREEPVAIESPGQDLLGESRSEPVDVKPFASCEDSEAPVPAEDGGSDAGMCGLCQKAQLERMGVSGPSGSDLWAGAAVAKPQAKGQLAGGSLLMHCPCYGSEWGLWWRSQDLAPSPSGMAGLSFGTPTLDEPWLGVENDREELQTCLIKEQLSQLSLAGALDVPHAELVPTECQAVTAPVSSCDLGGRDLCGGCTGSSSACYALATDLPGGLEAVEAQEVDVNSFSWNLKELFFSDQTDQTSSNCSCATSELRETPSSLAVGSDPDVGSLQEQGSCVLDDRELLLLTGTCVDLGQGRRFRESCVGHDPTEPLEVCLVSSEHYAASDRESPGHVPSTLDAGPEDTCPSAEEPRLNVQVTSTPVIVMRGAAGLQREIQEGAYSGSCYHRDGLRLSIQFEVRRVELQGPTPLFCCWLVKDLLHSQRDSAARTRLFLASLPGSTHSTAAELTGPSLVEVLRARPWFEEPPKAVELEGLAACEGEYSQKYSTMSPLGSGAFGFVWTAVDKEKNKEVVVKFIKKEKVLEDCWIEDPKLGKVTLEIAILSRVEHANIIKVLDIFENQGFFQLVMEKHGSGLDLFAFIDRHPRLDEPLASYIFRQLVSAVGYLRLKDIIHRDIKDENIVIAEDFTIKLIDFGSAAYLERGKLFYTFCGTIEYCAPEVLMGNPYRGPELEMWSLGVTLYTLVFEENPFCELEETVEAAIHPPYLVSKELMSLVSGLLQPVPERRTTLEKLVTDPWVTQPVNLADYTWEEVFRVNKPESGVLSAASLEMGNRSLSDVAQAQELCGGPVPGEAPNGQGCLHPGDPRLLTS
Chain of TEK (Tie2) (Q02763 23-1124): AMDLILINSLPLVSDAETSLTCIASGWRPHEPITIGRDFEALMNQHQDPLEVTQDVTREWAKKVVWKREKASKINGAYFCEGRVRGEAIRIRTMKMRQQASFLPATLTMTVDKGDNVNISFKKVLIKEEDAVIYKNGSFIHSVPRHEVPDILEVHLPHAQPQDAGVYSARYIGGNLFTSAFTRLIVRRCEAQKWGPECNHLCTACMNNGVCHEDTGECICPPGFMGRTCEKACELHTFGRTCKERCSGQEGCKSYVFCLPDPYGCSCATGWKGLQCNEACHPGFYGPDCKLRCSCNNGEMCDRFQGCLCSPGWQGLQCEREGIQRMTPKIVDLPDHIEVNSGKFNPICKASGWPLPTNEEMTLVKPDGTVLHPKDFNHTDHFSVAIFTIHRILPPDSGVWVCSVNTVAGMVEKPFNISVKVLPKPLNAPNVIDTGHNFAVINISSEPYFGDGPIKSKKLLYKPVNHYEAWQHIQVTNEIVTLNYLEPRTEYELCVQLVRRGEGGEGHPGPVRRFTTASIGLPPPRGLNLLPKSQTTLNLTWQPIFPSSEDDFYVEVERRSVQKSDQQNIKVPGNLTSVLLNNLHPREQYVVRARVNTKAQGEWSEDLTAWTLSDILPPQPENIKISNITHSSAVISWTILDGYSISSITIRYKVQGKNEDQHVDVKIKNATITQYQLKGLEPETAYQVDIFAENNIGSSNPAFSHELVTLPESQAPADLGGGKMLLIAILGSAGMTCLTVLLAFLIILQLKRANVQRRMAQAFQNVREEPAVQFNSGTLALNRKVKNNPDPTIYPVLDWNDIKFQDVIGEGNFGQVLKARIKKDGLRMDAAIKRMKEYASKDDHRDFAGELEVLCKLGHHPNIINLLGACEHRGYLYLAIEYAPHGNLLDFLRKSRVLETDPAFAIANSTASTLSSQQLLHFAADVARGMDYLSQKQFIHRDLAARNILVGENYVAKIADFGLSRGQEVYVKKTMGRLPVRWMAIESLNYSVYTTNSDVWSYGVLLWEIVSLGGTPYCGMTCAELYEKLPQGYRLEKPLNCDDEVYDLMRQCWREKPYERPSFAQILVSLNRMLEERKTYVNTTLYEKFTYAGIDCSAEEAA
Chain of TESK1 (Q15569 whole entry): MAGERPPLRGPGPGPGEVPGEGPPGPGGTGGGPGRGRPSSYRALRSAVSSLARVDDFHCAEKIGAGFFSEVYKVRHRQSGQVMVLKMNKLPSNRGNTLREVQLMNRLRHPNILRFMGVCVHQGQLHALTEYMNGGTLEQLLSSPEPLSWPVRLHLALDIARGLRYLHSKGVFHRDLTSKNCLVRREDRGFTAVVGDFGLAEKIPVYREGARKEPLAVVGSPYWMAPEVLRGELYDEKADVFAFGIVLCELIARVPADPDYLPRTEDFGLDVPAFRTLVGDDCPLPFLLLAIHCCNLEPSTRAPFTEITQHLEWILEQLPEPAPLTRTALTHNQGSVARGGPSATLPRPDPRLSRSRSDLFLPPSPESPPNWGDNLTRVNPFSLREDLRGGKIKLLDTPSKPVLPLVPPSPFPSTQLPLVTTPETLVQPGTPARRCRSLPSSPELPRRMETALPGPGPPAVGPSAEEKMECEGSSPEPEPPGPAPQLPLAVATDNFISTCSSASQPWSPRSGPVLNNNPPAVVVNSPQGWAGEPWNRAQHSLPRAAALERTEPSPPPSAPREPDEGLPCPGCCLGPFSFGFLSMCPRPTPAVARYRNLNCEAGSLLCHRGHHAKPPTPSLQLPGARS
Chain of SLK (Q9H2G2 whole entry): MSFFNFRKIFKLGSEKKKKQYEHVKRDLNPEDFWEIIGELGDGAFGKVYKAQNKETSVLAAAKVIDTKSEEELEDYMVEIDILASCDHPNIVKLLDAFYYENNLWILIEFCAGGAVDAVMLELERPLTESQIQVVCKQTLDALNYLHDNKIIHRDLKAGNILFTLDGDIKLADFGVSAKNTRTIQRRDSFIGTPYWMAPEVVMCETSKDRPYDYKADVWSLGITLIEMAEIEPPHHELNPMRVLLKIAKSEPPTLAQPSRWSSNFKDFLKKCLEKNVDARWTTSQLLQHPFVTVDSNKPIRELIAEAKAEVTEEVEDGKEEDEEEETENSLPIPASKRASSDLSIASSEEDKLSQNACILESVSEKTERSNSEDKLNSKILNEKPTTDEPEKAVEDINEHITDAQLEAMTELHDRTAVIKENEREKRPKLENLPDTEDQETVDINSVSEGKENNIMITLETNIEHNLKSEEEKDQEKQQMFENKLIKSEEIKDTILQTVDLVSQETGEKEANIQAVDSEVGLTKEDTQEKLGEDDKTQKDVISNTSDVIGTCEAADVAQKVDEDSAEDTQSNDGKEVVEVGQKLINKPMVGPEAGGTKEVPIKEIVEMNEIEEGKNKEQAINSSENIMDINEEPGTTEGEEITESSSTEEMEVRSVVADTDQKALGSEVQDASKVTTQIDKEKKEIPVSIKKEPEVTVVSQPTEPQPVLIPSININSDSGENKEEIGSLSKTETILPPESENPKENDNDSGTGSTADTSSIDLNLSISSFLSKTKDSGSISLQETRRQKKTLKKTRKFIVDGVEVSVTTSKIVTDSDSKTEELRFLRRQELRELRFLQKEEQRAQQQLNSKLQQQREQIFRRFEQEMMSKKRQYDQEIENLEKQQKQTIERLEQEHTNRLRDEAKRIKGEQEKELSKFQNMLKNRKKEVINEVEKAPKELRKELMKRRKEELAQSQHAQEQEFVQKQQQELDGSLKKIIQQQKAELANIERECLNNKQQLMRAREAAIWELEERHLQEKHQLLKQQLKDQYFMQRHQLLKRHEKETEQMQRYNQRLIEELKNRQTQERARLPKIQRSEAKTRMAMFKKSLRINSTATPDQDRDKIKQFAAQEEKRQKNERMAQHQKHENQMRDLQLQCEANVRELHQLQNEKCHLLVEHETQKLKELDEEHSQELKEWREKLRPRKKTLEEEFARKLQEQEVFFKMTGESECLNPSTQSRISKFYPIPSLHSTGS
Chain of STK32B (YANK2) (Q9NY57 whole entry): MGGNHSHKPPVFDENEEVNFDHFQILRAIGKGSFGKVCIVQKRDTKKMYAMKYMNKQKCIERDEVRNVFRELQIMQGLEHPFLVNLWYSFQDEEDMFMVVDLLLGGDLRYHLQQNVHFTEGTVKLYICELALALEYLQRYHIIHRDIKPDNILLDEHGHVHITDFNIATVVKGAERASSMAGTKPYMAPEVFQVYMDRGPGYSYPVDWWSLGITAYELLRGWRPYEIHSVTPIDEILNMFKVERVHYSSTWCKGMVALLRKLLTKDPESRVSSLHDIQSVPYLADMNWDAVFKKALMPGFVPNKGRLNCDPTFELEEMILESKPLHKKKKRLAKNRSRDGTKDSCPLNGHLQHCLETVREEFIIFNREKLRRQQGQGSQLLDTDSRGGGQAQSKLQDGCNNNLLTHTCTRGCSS

C#CCOc1ccc(Nc2ncc(Cl)c(Nc3ccccc3NC(=O)C=C)n2)c(OC)c1 [Compound 6]
inhibition at 1 µM (MLK4; [1]): 3% | Inhibition at 1 µM (%) (MLK4; MLK4, 1 µM, LanthaScreen Binding, listed as WEL028, 1 µM): 6% and 0% | inhibition at 1 µM (PASK; [1]): 2% | Inhibition at 1 µM (%) (PASK): -3% | Inhibition at 1 µM (%) (PASK; listed as WEL028, 1 µM): 7% | Inhibition (%) (CDK2/cyclin A; 1 μM WEL028, 1 h preincubation): -3% | Inhibition at 1 µM (%) (CDK2/cyclin A; CDK2/cyclin A, 1 µM, ZLYTE, ATP Km app, listed as WEL028, 1 µM): -5% and 0% | inhibition at 1 µM (FGFR3; [1]): 6% | inhibition at 1 µM (FGFR3; read-out: Inhibition at 1 µM (%), FGFR3, 1 µM, ZLYTE, ATP Km app): 7% | inhibition at 1 µM (ICK; [1]): 7% | inhibition at 1 µM (ICK; read-out: Inhibition at 1 µM (%), ICK, 1 µM, LanthaScreen Binding): 8% | Inhibition at 1 µM (%) (TEK (Tie2); 1 µM, ZLYTE, ATP Km app, listed as WEL028, 1 µM): 4% and 10% | inhibition at 1 µM (TEK (Tie2); [1]): 7% | inhibition at 1 µM (AURKB (Aurora B); [1]): 37% | Inhibition at 1 µM (%) (AURKB (Aurora B); AURKB (Aurora B), 1 µM, ZLYTE, ATP Km app, listed as WEL028, 1 µM): 32% | inhibition at 1 µM (AURKB (Aurora B); read-out: Inhibition at 1 µM (%), AURKB (Aurora B), 1 µM, ZLYTE, ATP Km app): 41% | inhibition at 1 µM (EPHB4; [1]): 1% | Inhibition at 1 µM (%) (EPHB4): 3% | Inhibition at 1 µM (%) (EPHB4; listed as WEL028, 1 µM): -1% | Inhibition at 1 µM (%) (SLK; [2]): 1% and 7% | inhibition at 1 µM (SLK; [1]): 4% | Inhibition at 1 µM (%) (STK32B (YANK2); [2]): 6% | inhibition at 1 µM (STK32B (YANK2); [1]): 7% | inhibition at 1 µM (STK32B (YANK2); [3]): 7% | Inhibition at 1 µM (%) (TESK1; [2]): 9% | inhibition at 1 µM (TESK1; [1]): 10% | inhibition at 1 µM (TESK1; [3]): 10%
